{"source": "patent US10806730B2", "about": "“Methods of treating cancer with farnesyltransferase inhibitors” (Kura Oncology, Inc., priority 2017, dated 2020)", "type_in_all_cases": "in vivo, human", "key": {"[1]": {"tested_on": "higher risk MDS/CMML subjects", "experiment": "Clinical study of tipifarnib (INT-28) in higher risk MDS/CMML", "procedure": "A clinical study of tipifarnib (300 mg bid (twice daily), 3 weeks on/1 week off) was conducted in 82 higher risk MDS/CMML subjects. 67 subjects were transfusion dependent (TD) at study entry, whereby a subject receiving one or several red blood cell (RBC) transfusions during screening and up to the first administration of tipifarnib was classified as TD.\n30/67 (45%) MDS subjects were initially classified as having moderate to severe neutropenia, based on their absolute neutrophil count (ANC) of <1,000 cells/μl blood prior to receiving tipifarnib. The ANC of the remaining 37/67 (55%) MDS subjects was ≥1,000 cells/μl blood. 9/30 (30%) MDS subjects with moderate to severe neutropenia and 2/37 (5%) MDS subjects without moderate to severe neutropenia converted to transfusion independence during the tipifarnib study. […] The majority of the subjects that developed transfusion independence were of intermediate (INT) risk of developing AML."}, "[2]": {"tested_on": "elderly patients with newly diagnosed, de novo, or secondary AML", "experiment": "Ph3 study AML301, tipifarnib vs BSC", "procedure": "(§1) Clinical studies with tipifarnib were performed in newly diagnosed elderly patients with poor risk AML (CTEP-20, Phase 2) and relapsed and refractory AML (INT-17, Phase 2). Patient selection in these studies was not based on genetic markers. Anecdotal evidence of tipifarnib single agent activity was reported. […] Median OS in the overall study was 107 days for the Tipifarnib group and 109 days for the BSC group in AML301."}, "[3]": {"tested_on": "newly diagnosed elderly patients with poor risk AML", "experiment": "CTEP-20 Phase 2 tipifarnib study", "procedure": "as §1"}, "[4]": {"tested_on": "relapsed and refractory AML", "experiment": "INT-17 Phase 2 tipifarnib study", "procedure": "as §1"}, "[5]": {"conditions": "34 study subjects with outcome and expression data"}, "[6]": {"conditions": "CXCR4/CXCR2 expression ratio quartiles 1st-3rd"}, "[7]": {"conditions": "bone marrow CXCR4/CXCR2 expression ratio in the upper quartile"}}}
{"smiles": "Cn1cncc1[C@@](N)(c1ccc(Cl)cc1)c1ccc2c(c1)c(-c1cccc(Cl)c1)cc(=O)n2C", "note": "[tipifarnib]", "values": [{"measurement": "conversion to transfusion independence (TI)", "setting": "[1]; 67 transfusion dependent (TD) subjects, 300 mg bid, 3 weeks on/1 week off", "value": 16, "unit": "%"}, {"measurement": "conversion to transfusion independence", "setting": "[1]; MDS subjects with neutropenia and high peripheral blast cell count >1%", "value": 11, "unit": "%"}, {"measurement": "conversion to transfusion independence", "setting": "[1]; MDS subjects with neutropenia and low peripheral blast cell count ≤1%", "value": 38, "unit": "%"}, {"measurement": "conversion to transfusion independence", "setting": "[1]; TD MDS subjects with moderate to severe neutropenia (ANC <1,000 cells/μl)", "value": 30, "unit": "%"}, {"measurement": "conversion to transfusion independence", "setting": "[1]; TD MDS subjects without moderate to severe neutropenia (ANC ≥1,000 cells/μl)", "value": 5, "unit": "%"}, {"measurement": "persistence of RBC and platelet transfusion independence", "setting": "[1]; exemplary MDS subject, ANC at screening=400 cells/μl, 300 mg bid, 3 weeks on/1 week off", "value": 308, "unit": "days"}, {"measurement": "hazard ratio, tipifarnib vs reference therapy", "setting": "[2]; ANC/WBC<0.3 and marrow blasts>60%, N=110, P=0.08", "value": 0.67}, {"measurement": "Median survival", "setting": "[2]; ANC/WBC<0.4, WBC>2, platelets>20, N=135", "value": 146, "unit": "days"}, {"measurement": "hazard ratio, tipifarnib vs BSC", "setting": "[2]; ANC/WBC<0.4, WBC>2, platelets>20, N=135, P=0.046", "value": 0.7}, {"measurement": "median progression free survival (PFS)", "setting": "[2]; BMR<0.1 prior to treatment, N=73", "value": 83, "unit": "days"}, {"measurement": "median PFS", "setting": "[2]; BMR≥0.1 prior to treatment, N=140", "value": 60, "unit": "days"}, {"measurement": "Median OS", "setting": "[2]; overall study", "value": 107, "unit": "days"}, {"measurement": "Hazards ratio, Tipifarnib compared with BSC", "setting": "[2]; overall study, N=457, non significant", "value": 1.02}, {"measurement": "Median survival", "setting": "[2]; subset with high BM blasts (>40%) and low peripheral blasts (<10%), N=82", "value": 201, "unit": "days"}, {"measurement": "HR, tipifarnib vs BSC", "setting": "[2]; subset with high BM blasts (>40%) and low peripheral blasts (<10%), N=82, P=0.019", "value": 0.58}, {"measurement": "Median overall PFS", "setting": "[3]; [5]", "value": 84, "unit": "days"}, {"measurement": "Median overall survival", "setting": "[3]; [5]", "value": 233, "unit": "days"}, {"measurement": "median progression free survival (PFS)", "setting": "[3]; BMR<0.1 prior to treatment, N=57", "value": 93, "unit": "days"}, {"measurement": "median PFS", "setting": "[3]; BMR≥0.1 prior to treatment, N=84", "value": 47, "unit": "days"}, {"measurement": "Median survival (FIG. 7A, PFS probabilities)", "setting": "[3]; [6]", "value": 67, "unit": "days"}, {"measurement": "Median survival (FIG. 7B)", "setting": "[3]; [6]", "value": 179, "unit": "days"}, {"measurement": "HR (FIG. 7B, survival), upper quartile vs quartiles 1st-3rd", "setting": "[3]; CXCR4/CXCR2 expression ratio, p=0.07", "value": 0.26}, {"measurement": "HR (FIG. 7A, PFS), upper quartile vs quartiles 1st-3rd", "setting": "[3]; CXCR4/CXCR2 expression ratio, p=0.09", "value": 0.44}, {"measurement": "Median survival (FIG. 7A, PFS probabilities)", "setting": "[3]; [7]", "value": 406, "unit": "days"}, {"measurement": "Median survival (FIG. 7B)", "setting": "[3]; [7]", "value": 728, "unit": "days"}, {"measurement": "overall survival", "setting": "[4]; 57 subjects with CXCR4/CXCR2 ratio data", "value": 87, "unit": "days"}, {"measurement": "median PFS", "setting": "[4]; AML subjects overexpressing CXCR4, N=8", "value": 143, "unit": "days"}, {"measurement": "median PFS", "setting": "[4]; AML subjects with relatively lower levels of CXCR4 expression, N=49", "value": 29, "unit": "days"}, {"measurement": "Median survival", "setting": "[4]; CXCR4/CXCR2 quintile group 1", "value": 56, "unit": "days"}, {"measurement": "Median survival", "setting": "[4]; CXCR4/CXCR2 quintile group 2", "value": 78, "unit": "days"}, {"measurement": "Median survival", "setting": "[4]; CXCR4/CXCR2 quintile group 3", "value": 44, "unit": "days"}, {"measurement": "Median survival", "setting": "[4]; CXCR4/CXCR2 quintile group 4", "value": 105, "unit": "days"}, {"measurement": "Median survival", "setting": "[4]; CXCR4/CXCR2 quintile group 5", "value": 182, "unit": "days"}, {"measurement": "HR, 5th quintile of CXCR4/CXCR2 ratio vs rest", "setting": "[4]; p=0.04", "value": 0.52}, {"measurement": "Median survival", "setting": "[4]; rest of the subjects (not 5th quintile of CXCR4/CXCR2 ratio)", "value": 74, "unit": "days"}]}
